Literature values as cited in patent US4868157A, “Dipeptidyl 2-amino-1,2-dideoxy-D-glucose derivatives as host resistance enhancers in AIDS-immunocompromised hosts and methods of use” (priority 1987, dated 1989).

Tests used:
[1] = test system: AIDS-related Kaposi's sarcoma; details: AIDS-related Kaposi's sarcoma cases
AIDS-related virus = details: for viral replication in patients: humans / AIDS patients; for symptoms and/or immune function in patients: ARC or AIDS patients, clinical trials
[2] = test system: Mycobacterium aviumintracellulare
[3] = target: HIV reverse transcriptase (Human immunodeficiency virus type 1 group M subtype B, UniProt P04585)

Which results are given for α-Interferon?
tumor regression [1]: induced tumor regression in some AIDS-related Kaposi's sarcoma cases; growth of HIV in vitro (HIV): Checks the growth of HIV in vitro

What does the source list for `CC(C)(S)[C@@H](N)C(=O)O` [D-Penicillamine, 3-mercapto-D-valine]?
T cell levels (AIDS-related virus; human, in vivo): temporarily depressed T cell levels; viral replication in patients (AIDS-related virus): Inhibits HIV reproduction in humans; effect on the virus (AIDS-related virus; trials at George Washington University Medical Center, 13 AIDS patients with perpetually swollen glands): suppressed the virus

Which “symptoms and/or immune function in patients” value (AIDS-related virus) does the source give for `CC(=O)Nc1ccc(C(=O)O)cc1.CC(=O)Nc1ccc(C(=O)O)cc1.CC(=O)Nc1ccc(C(=O)O)cc1.CC(O)CN(C)C.CC(O)CN(C)C.CC(O)CN(C)C.O=c1[nH]cnc2c1ncn2[C@@H]1O[C@H](CO)[C@@H](O)[C@H]1O` [Inosine pranobex, p-Acetamidobenzoic acid salt of (1-dimethylamino-2-propanol:inosinate complex 3:3:1 molar ratio)] here?
The value was “improve immune function”.

With `CC(C)(N1CC1C#N)N1CC1C(N)=O` (stereo not drawn) [Azimexon] as the compound, how does the “symptoms and/or immune function in patients” value (AIDS-related virus) read?
The value was “improvements in symptoms and immune function in patients with ARC but not AIDS”.

Which tolerability (24-week trial in 373 ARC patients, at 12 weeks) does the source give for `NC(=O)c1ncn([C@@H]2O[C@H](CO)[C@@H](O)[C@H]2O)n1` [Ribavirin, 1-β-D-ribofuranosyl-1,2,4-triazole-3-carboxamide] here?
The tolerability was “well tolerated”.

And the safety profile (human, in vivo)?
Its safety profile is “acceptable”.

And the “symptoms and/or immune function in patients” value (AIDS-related virus)?
Its value is “improved immune function”.

What about the “viral replication in patients” value (AIDS-related virus) of the same compound?
Its value is “inhibited viral replication”.

For `CO[C@H]1/C=C/O[C@@]2(C)Oc3c(C)c(O)c4c(c3C2=O)C2=NC3(CCN(CC(C)C)CC3)NC2=C(NC(=O)/C(C)=C\C=C\[C@H](C)[C@H](O)[C@@H](C)[C@@H](O)[C@@H](C)[C@H](OC(C)=O)[C@@H]1C)C4=O` [Ansamycin, rifabutin], which “efficacy in AIDS patients with opportunistic Mycobacterium aviumintracellulare infection” value [2] is on record?
The value was “some efficacy”.

Which “therapeutic benefit / clinical improvement in AIDS patients” value (AIDS-related virus) does the source give for “ammonium 21-tungsto-9-antimoniate [HPA-23]” here?
The value was “no therapeutic benefit has been documented”.

Which “therapeutic benefit / clinical improvement in AIDS patients” value (AIDS-related virus) does the source give for `Cc1ccc(C(=O)Nc2ccc(S(=O)(=O)O)c3cc(S(=O)(=O)O)cc(S(=O)(=O)O)c23)cc1NC(=O)c1cccc(NC(=O)Nc2cccc(C(=O)Nc3cc(C(=O)Nc4ccc(S(=O)(=O)O)c5cc(S(=O)(=O)O)cc(S(=O)(=O)O)c45)ccc3C)c2)c1` [Suramin] here?
Its value is “little or no evidence of clinical improvement or immunologic recovery”.

With `O=C(O)P(=O)(O)O` [Foscarnet, trisodium phosphonoformate] as the compound, how does the “inhibition of HIV reverse transcriptase” value [3] read?
Its value is “Inhibits HIV reverse transcriptase activity in vitro at levels pharmacologically acceptable in vivo”.
